Reference: US8099262B2, “Estimation of clinical cut-offs” (priority 2004, dated 2012)

Legend:
Assay type in all cases: in vivo
HIV [1] = experiment: Logistic regression model of probability of success/failure as a function of baseline fold change resistance (clinical cut-offs); conditions: Definition 2
Text: In such a method, Prob of success is preferably calculated by performing a logistic regression analysis using data from a clinical response dataset, wherein Prob of success is modelled according to the following equation: […]
The clinical outcome results (drop in viral load and response rate) were modelled as a function of baseline fold change (FC) as determined by virtual phenotype (see WO01/79540 and WO02/33402; also http://www.vircolab.com). The models applied were linear regression, logistic regression, and a classification tree. These models also took into account effects of the concomitant HIV drugs (PSS), baseline viral load (Baseline Log(V1)i) and, optionally, treatment history in order to avoid bias introduced by imbalances of important characteristics. From the models, a prediction of clinical outcome could be made at different levels of the baseline fold change resistance.
In the logistic regression, the proposed equation was the following: […]
However, by binning the viral load into successes and failures, part of the information of the continuous variable viral load is lost. Estimates are also corrected for covariates as for linear regression.
(§1) The maximum effect was defined as the treatment effect at fold change 1, and the minimum effect was defined as the treatment effect at a very high fold change (i.e. when the curve reached a plateau). The effect range was then the difference between the maximum effect and the minimum effect.
The lower and higher cutoffs are defined as the fold change associated with an expected 20% and 80% decrease respectively of the reference activity of the drug within the regimen.

HIV [2] = test system: HIV
Text: Further factors which may be taken into account when validating the model are the odds ratios determined using clinical cutoffs compared to those determined using biological cutoffs. These ratios represent the odds of being a responder in the group that is labeled resistant by the cutoffs divided by the odds of being a responder in the group that is labeled sensitive by the cutoffs. In this way it is possible to evaluate how well the cutoffs perform on a drug by drug basis. The further away that the odds ratio is from 1, the stronger the correlation between the resistance class and clinical outcome. The odds ratio as specified above yield numbers smaller than 1 as the odds of being a responder should be smaller in the higher resistance class. Put another way, the probability of response will decrease as the resistance increases. Additionally, if the odds ratio for the CCO is smaller than the odds ratio for the BCO, it can be concluded that the CCO is stronger correlated with clinical outcome and therefore gives a better prediction than the BCO.
A logistic regression model may be used to determine the odds ratio. The model used is the same as the logistic regression model described above except that the fold change in the model is replaced by the resistance class. The coefficient for the resistance class that is obtained from the model is the log (odds ratio). The advantage of using this model is that the odds ratio estimates can be adjusted for the baseline viral load and the cPSS score of the background regimen.
The columns headed CCO Odds Ratio and BCO Odds Ratio represent the odds of being a responder in the group that is labeled resistance by the cutoffs divided by the odds of being a responder in the group that is labeled sensitive by the cutoffs. For example, if there are four non-responders and one responder in the resistant group, and four responders and two non-responders in the sensitive group, the odds of being a responder in the resistant group is 1:4=0.25 and the odds of being a responder in the sensitive group is 4:2=2. […] The further away that the odds ratio is from 1, the stronger the correlation between the resistance class and clinical outcome.
The separation in groups (resistance/sensitive) can be done based on clinical cutoffs or biological cutoffs. This means that odds ratios based on clinical cutoffs (CCO) and odds ratios based on biological cutoffs (BCO) can be compared. If the odds ratio for the CCO is smaller than the odds ratio for the BCO, it can be concluded that the CCO gives a better prediction than the BCO.
In practice, a logistic regression model is used to determine the odds ratio. The model used is similar to logistic regression model described earlier except that the fold change in the model is replaced by the resistance class. The coefficient for the resistance class that is obtained from the model is the log (odds ratio). The advantage of using this model is that the odds ratio estimates can be adjusted for the baseline viral load and the cPSS score of the background regimen. […] In this case, a larger odds ratio indicates a stronger correlation with clinical outcome.

HIV [3] = test system: HIV; parameters: Linear Regression Higher CO / Linear Regression Lower CO: unit not given here
Text: Databases of studies for patients with tenofovir containing regimens and consisting of patient baseline demographic characteristics, clinical outcome results with viral load and resistance data (Fold change), were retrieved and remapped according to a common structure allowing a meta-analysis. The structure consisted of baseline sequence, viral load data set, viral load measurements and sampling dates (for example viral load within 3 months of starting new regimen and viral load assessment 8 and/or 24 weeks after beginning new regimen), CD4+ data set which contains CD4+ counts and sampling dates, resistance data set containing the fold changes to different antivirals and sampling dates; patient data set with patient information such as age, gender, race, treatment history; treatment data set with drug regimens, start and stop dates, doses, formulations, frequency of intake, regimen changes after resistance tests. The structure of such a clinical data base can be seen in FIG. 1a.
The viral load response data includes censored (<400 copies/ml) values. Parameters of the underlying uncensored distribution were estimated by maximum likelihood estimation in SAS (proc lifereg). The viral load response data are corrected for baseline viral load and cPSS.
The models applied were linear regression, logistic regression, and a classification tree. These models also took into account effects of the concomitant HIV drugs (PSS), baseline viral load (Baseline Log(V1)i) and, optionally, treatment history in order to avoid bias introduced by imbalances of important characteristics. From the models, a prediction of clinical outcome could be made at different levels of the baseline fold change resistance.
In the linear regression model, the proposed equation was the following: LogVL dropi=β0+β1*Baseline Log(V1)i+β2*PSSi+β3*(1/FC)i+ξi where i represented the patient, β0 the intercept, β1, β2 and β3 coefficients indicated the increase in log viral load drop per unit increase of respectively the baseline log VL, the number of sensitive drugs in the background regimen and the inverse of the baseline fold change. ξi was a random error term indicating the deviation of the patient from the value predicted by the model. Interactions between all the factors were evaluated and other baseline characteristics, i.e treatment history, were added if relevant.
When viral load results under the detection limits are obtained, biases could be introduced if the detection limit values are considered when calculating viral load drops and using those in the linear regression model. To avoid this, censoring needed to be taken into account and therefore the PROC LIFEREG facility in the SAS package was employed.
Clinical responses were predicted in the models developed in previous step 2. […] In order to determine the fold changes at which clinically relevant diminished clinical responses can be observed, three definitions of clinical cut-offs were considered:
as §1

HIV [4] = test system: HIV; parameters: key to Modelled Lower Cutoff & Confidence Interval / Modelled Upper Cutoff & Confidence Interval: fold change (FC) matching VL drop at 20% and 80% loss of activity; conditions: preferred embodiment of linear regression
Text: In a preferred embodiment of the linear regression model, more factors are included in order to obtain a more refined prediction of viral load response. These factors include for example a sensitivity score per drug class in addition to the overall sensitivity score of the background treatment (cPSS), previous exposure to the drug (naïve (Yes/No), naïve to PIs, naïve to NRTI's, etc. . . . ). Furthermore, in the preferred embodiment, the fold change is transformed before inserting the figures into the model. The transformation to the fold change comprises a power-transformation ranging from FC^−3 to FC^1. In addition, a quadratic term in cPSS is preferably added.
The NRTI[naïve] value represents whether the patient is naïve to nucleoside RT inhibitors. If yes, value=1, if no, value=0. The PSS[NRTI} represents the phenotypic sensitivity score for NRTIs, i.e the number of active NRTIs in the background regimen for the patient.
Stage 3: Determine Fold change equivalent to VL drop at 20% and 80% loss of activity by inserting values for VL drop into the above equation and calculating FC. […]

[5] = Subgroup 1: PSS = 2, baseline Log (VL) = 4
[6] = log baseline VL/background PSS of 5/0
[7] = Definition 2, Overall (whole population)
[8] = preliminary linear regression analysis, virologic response at 8 weeks

Substance: Saquinavir/r [SQV/r]
- Logistic Regression Higher CO (HIV [1]; [5]): 13.2
- Logistic Regression Lower CO (HIV [1]; [5]): 1.7
- lower cutoff, logistic regression (HIV [1]; [6]): 1.7
- upper cutoff, logistic regression (HIV [1]; [6]): 12.9
- Test Data BCO Odds Ratio (HIV [2]; test data, biological cutoffs): 0.249
- Test Data CCO Odds Ratio (HIV [2]; test data, clinical cutoffs): 0.165
- Validation Data BCO Odds Ratio (HIV [2]; validation data, biological cutoffs): 0.080
- Validation Data CCO Odds Ratio (HIV [2]; validation data, clinical cutoffs): 0.054
- Linear Regression Higher CO (HIV [3]; [7]): 12.3
- Linear Regression Lower CO (HIV [3]; [7]): 1.6
- VIROLOGIC RESPONSE Baseline FC for 80% REDUCTION of response (upper cutoff) (HIV [3]; preliminary linear regression analysis, definition 2): 12
- VIROLOGIC RESPONSE 20% REDUCTION (fold change, preliminary VirtualPhenotype Clinical Cutoff) (HIV [3]; [8]): 1.6
- VIROLOGIC RESPONSE 80% REDUCTION (fold change, preliminary VirtualPhenotype Clinical Cutoff) (HIV [3]; [8]): 12
- Modelled Lower Cutoff & Confidence Interval (HIV [4]): 1.1
- Modelled Upper Cutoff & Confidence Interval (HIV [4]): 12.0
